Test results from US20230000813A1, “COMPOUND FOR THE TREATMENT OF BOVINE OR SWINE RESPIRATORY DISEASE” (Intervet Inc., priority 2016, published 2023).
In brackets after ≈: the same amount, converted by molar mass.

tested on: Mannheimia haemolytica MH 6374 (ATCC 33396, reference strain); experiment: MIC, broth-microdilution (CLSI VET01-A4); assay type: cell-based; conditions: Mannheimia haemolytica MH 6374; read-out: MIC MH 6374
Method: (§1) The Minimum inhibitory concentrations (MIC) of compounds according to the invention for a number of veterinary bacterial pathogens were determined by the broth-microdilution method according to CLSI document VET01-A4.
(§2) Microdilution trays containing a doubling dilution series of the test compound were used for the tests. The MIC results were interpreted according to the CLSI documents VET01-S3. The lowest concentration of compound at which no visible growth (i.e. no turbidity) detected by the unaided eye was recorded as the MIC.
(§3) The Minimum inhibitory concentrations (MIC) of compounds according to the invention were determined by the broth-microdilution method according to CLSI document VET01-A4.
(§4) Microdilution trays containing a doubling dilution series of the test compound were used for the tests.
(§5) The MIC results were interpreted according to the CLSI documents VET01-S3. The lowest concentration of compound at which no visible growth (i.e. no turbidity) detected by the unaided eye was recorded as the MIC.

SMILES	MIC
C[C@@H](O)[C@H](NC(=O)c1ccc(C#Cc2ccc(CNCC3CCCO3)s2)cc1)C(=O)NO (stereo partly drawn) [C. 412]	0.8 µM (≈ 0.366 µg/mL)
C[C@@H](O)[C@H](NC(=O)c1ccc(C#Cc2ccc(CNC3CC3)nc2)cc1)C(=O)NO [C. 413]	0.8 µM (≈ 0.327 µg/mL)
C[C@@H](O)[C@H](NC(=O)c1ccc(C#Cc2ccc(CNC3CC3)s2)cc1)C(=O)NO [Compound 398]	0.8 µM (≈ 0.331 µg/mL)
C=CCNCc1ccc(C#Cc2ccc(C(=O)N[C@H](C(=O)NO)[C@@H](C)O)cc2)cn1 [C. 415]	1.6 µM (≈ 0.654 µg/mL)
C[C@@H](O)[C@H](NC(=O)c1ccc(C#Cc2ccc(CNCc3ccccn3)s2)cc1)C(=O)NO [Compound 408]	0.4 µM (≈ 0.186 µg/mL)

tested on: Pasteurella multocida PM 12080 (IV102277-0093, BRD field isolate); experiment: MIC, broth-microdilution (CLSI VET01-A4); assay type: cell-based; conditions: Pasteurella multocida PM 12080
Method: as §1, §2, §3, §4, §5

SMILES	MIC PM 12080
C[C@@H](O)[C@H](NC(=O)c1ccc(C#Cc2ccc(CNC3CC3)nc2)cc1)C(=O)NO [C. 413]	<=0.1 μM
C[C@@H](O)[C@H](NC(=O)c1ccc(C#Cc2ccc(CNC3CC3)s2)cc1)C(=O)NO [Compound 398]	<=0.1 μM
C[C@@H](O)[C@H](NC(=O)c1ccc(C#Cc2ccc(CNCc3ccccn3)s2)cc1)C(=O)NO [Compound 408]	<=0.1 μM

same assay, conditions: Pasteurella multocida PM 12080; read-out: MIC PM 12080

SMILES	MIC
C[C@@H](O)[C@H](NC(=O)c1ccc(C#Cc2ccc(CNCC3CCCO3)s2)cc1)C(=O)NO (stereo partly drawn) [C. 412]	0.4 µM (≈ 0.183 µg/mL)
C=CCNCc1ccc(C#Cc2ccc(C(=O)N[C@H](C(=O)NO)[C@@H](C)O)cc2)cn1 [C. 415]	0.4 µM (≈ 0.163 µg/mL)

tested on: Pasteurella multocida PM 6391 (ATCC 43137, reference strain); experiment: MIC, broth-microdilution (CLSI VET01-A4); assay type: cell-based; conditions: Pasteurella multocida PM 6391
Method: as §1, §2, §3, §4, §5

SMILES	MIC PM 6391
C[C@@H](O)[C@H](NC(=O)c1ccc(C#Cc2ccc(CNC3CC3)nc2)cc1)C(=O)NO [C. 413]	<=0.1 μM
C[C@@H](O)[C@H](NC(=O)c1ccc(C#Cc2ccc(CNC3CC3)s2)cc1)C(=O)NO [Compound 398]	<=0.1 μM
C[C@@H](O)[C@H](NC(=O)c1ccc(C#Cc2ccc(CNCc3ccccn3)s2)cc1)C(=O)NO [Compound 408]	<=0.1 μM

same assay, conditions: Pasteurella multocida PM 6391; read-out: MIC PM 6391

SMILES	MIC
C[C@@H](O)[C@H](NC(=O)c1ccc(C#Cc2ccc(CNCC3CCCO3)s2)cc1)C(=O)NO (stereo partly drawn) [C. 412]	0.2 µM (≈ 0.0915 µg/mL)
C=CCNCc1ccc(C#Cc2ccc(C(=O)N[C@H](C(=O)NO)[C@@H](C)O)cc2)cn1 [C. 415]	0.2 µM (≈ 0.0817 µg/mL)

tested on: Pasteurella multocida PM 6267 (P 2225 (L386), reference strain, mouse infection strain); experiment: MIC, broth-microdilution (CLSI VET01-A4); assay type: cell-based; conditions: Pasteurella multocida PM 6267
Method: as §1, §2, §3, §4, §5

SMILES	MIC PM 6267
C[C@@H](O)[C@H](NC(=O)c1ccc(C#Cc2ccc(CNCC3CCCO3)s2)cc1)C(=O)NO (stereo partly drawn) [C. 412]	<=0.1 μM
C[C@@H](O)[C@H](NC(=O)c1ccc(C#Cc2ccc(CNC3CC3)nc2)cc1)C(=O)NO [C. 413]	<=0.1 μM
C[C@@H](O)[C@H](NC(=O)c1ccc(C#Cc2ccc(CNC3CC3)s2)cc1)C(=O)NO [Compound 398]	<=0.1 μM
C[C@@H](O)[C@H](NC(=O)c1ccc(C#Cc2ccc(CNCc3ccccn3)s2)cc1)C(=O)NO [Compound 408]	<=0.1 μM

same assay, conditions: Pasteurella multocida PM 6267; read-out: MIC PM 6267

SMILES	MIC
C=CCNCc1ccc(C#Cc2ccc(C(=O)N[C@H](C(=O)NO)[C@@H](C)O)cc2)cn1 [C. 415]	0.2 µM (≈ 0.0817 µg/mL)

tested on: Mannheimia haemolytica MH 6357 (M7/2, reference strain, cattle infection strain); experiment: MIC, broth-microdilution (CLSI VET01-A4); assay type: cell-based; conditions: Mannheimia haemolytica MH 6357; read-out: MIC MH 6357
Method: as §1, §2, §3, §4, §5

SMILES	MIC
C[C@@H](O)[C@H](NC(=O)c1ccc(C#Cc2ccc(CNCC3CCCO3)s2)cc1)C(=O)NO (stereo partly drawn) [C. 412]	0.8 µM (≈ 0.366 µg/mL)
C[C@@H](O)[C@H](NC(=O)c1ccc(C#Cc2ccc(CNC3CC3)nc2)cc1)C(=O)NO [C. 413]	0.4 µM (≈ 0.163 µg/mL)
C[C@@H](O)[C@H](NC(=O)c1ccc(C#Cc2ccc(CNC3CC3)s2)cc1)C(=O)NO [Compound 398]	0.4 µM (≈ 0.165 µg/mL)
C=CCNCc1ccc(C#Cc2ccc(C(=O)N[C@H](C(=O)NO)[C@@H](C)O)cc2)cn1 [C. 415]	0.8 µM (≈ 0.327 µg/mL)
C[C@@H](O)[C@H](NC(=O)c1ccc(C#Cc2ccc(CNCc3ccccn3)s2)cc1)C(=O)NO [Compound 408]	0.4 µM (≈ 0.186 µg/mL)

tested on: Mannheimia haemolytica MH 12587 (1071, BRD field isolate, macrolide-resistance: erm+, E+); experiment: MIC, broth-microdilution (CLSI VET01-A4); assay type: cell-based; conditions: Mannheimia haemolytica MH 12587, macrolide-resistant
Method: as §1, §2, §3, §4, §5

SMILES	MIC MH 12587
C[C@@H](O)[C@H](NC(=O)c1ccc(C#Cc2ccc(CNCC3CCCO3)s2)cc1)C(=O)NO (stereo partly drawn) [C. 412]	1.6 µM (≈ 0.732 µg/mL)
C[C@@H](O)[C@H](NC(=O)c1ccc(C#Cc2ccc(CNC3CC3)nc2)cc1)C(=O)NO [C. 413]	0.8 µM (≈ 0.327 µg/mL)
C[C@@H](O)[C@H](NC(=O)c1ccc(C#Cc2ccc(CNC3CC3)s2)cc1)C(=O)NO [Compound 398]	0.4 µM (≈ 0.165 µg/mL)
C=CCNCc1ccc(C#Cc2ccc(C(=O)N[C@H](C(=O)NO)[C@@H](C)O)cc2)cn1 [C. 415]	1.6 µM (≈ 0.654 µg/mL)
C[C@@H](O)[C@H](NC(=O)c1ccc(C#Cc2ccc(CNCc3ccccn3)s2)cc1)C(=O)NO [Compound 408]	0.8 µM (≈ 0.372 µg/mL)

tested on: Pasteurella multocida PM 10775 (080130003051, BRD field isolate); experiment: MIC, broth-microdilution (CLSI VET01-A4); assay type: cell-based; conditions: Pasteurella multocida PM 10775
Method: as §1, §2, §3, §4, §5

SMILES	MIC PM 10775
C[C@@H](O)[C@H](NC(=O)c1ccc(C#Cc2ccc(CNCC3CCCO3)s2)cc1)C(=O)NO (stereo partly drawn) [C. 412]	<=0.1 μM
C[C@@H](O)[C@H](NC(=O)c1ccc(C#Cc2ccc(CNC3CC3)nc2)cc1)C(=O)NO [C. 413]	<=0.1 μM
C[C@@H](O)[C@H](NC(=O)c1ccc(C#Cc2ccc(CNC3CC3)s2)cc1)C(=O)NO [Compound 398]	<=0.1 μM
C=CCNCc1ccc(C#Cc2ccc(C(=O)N[C@H](C(=O)NO)[C@@H](C)O)cc2)cn1 [C. 415]	<=0.1 μM
C[C@@H](O)[C@H](NC(=O)c1ccc(C#Cc2ccc(CNCc3ccccn3)s2)cc1)C(=O)NO [Compound 408]	<=0.1 μM

tested on: Mannheimia haemolytica MH 13065 (XB0446-6003.9, BRD field isolate); experiment: MIC, broth-microdilution (CLSI VET01-A4); assay type: cell-based; conditions: not given
Method: as §1, §2

SMILES	MIC
C[C@@H](O)[C@H](NC(=O)c1ccc(C#Cc2ccc(CNCC3CCCO3)s2)cc1)C(=O)NO (stereo partly drawn) [C. 412]	0.8 µM (≈ 0.366 µg/mL)
C[C@@H](O)[C@H](NC(=O)c1ccc(C#Cc2ccc(CNC3CC3)nc2)cc1)C(=O)NO [C. 413]	0.4 µM (≈ 0.163 µg/mL)
C[C@@H](O)[C@H](NC(=O)c1ccc(C#Cc2ccc(CNC3CC3)s2)cc1)C(=O)NO [Compound 398]	0.2 µM (≈ 0.0827 µg/mL)
C=CCNCc1ccc(C#Cc2ccc(C(=O)N[C@H](C(=O)NO)[C@@H](C)O)cc2)cn1 [C. 415]	0.4 µM (≈ 0.163 µg/mL)
C[C@@H](O)[C@H](NC(=O)c1ccc(C#Cc2ccc(CNCc3ccccn3)s2)cc1)C(=O)NO [Compound 408]	0.4 µM (≈ 0.186 µg/mL)

tested on: Mannheimia haemolytica MH 13093 (XB0472-6014.1, BRD field isolate); experiment: MIC, broth-microdilution (CLSI VET01-A4); assay type: cell-based; conditions: not given
Method: as §1, §2

SMILES	MIC
C[C@@H](O)[C@H](NC(=O)c1ccc(C#Cc2ccc(CNCC3CCCO3)s2)cc1)C(=O)NO (stereo partly drawn) [C. 412]	1.6 µM (≈ 0.732 µg/mL)
C[C@@H](O)[C@H](NC(=O)c1ccc(C#Cc2ccc(CNC3CC3)nc2)cc1)C(=O)NO [C. 413]	0.4 µM (≈ 0.163 µg/mL)
C[C@@H](O)[C@H](NC(=O)c1ccc(C#Cc2ccc(CNC3CC3)s2)cc1)C(=O)NO [Compound 398]	0.2 µM (≈ 0.0827 µg/mL)
C=CCNCc1ccc(C#Cc2ccc(C(=O)N[C@H](C(=O)NO)[C@@H](C)O)cc2)cn1 [C. 415]	1.6 µM (≈ 0.654 µg/mL)
C[C@@H](O)[C@H](NC(=O)c1ccc(C#Cc2ccc(CNCc3ccccn3)s2)cc1)C(=O)NO [Compound 408]	0.4 µM (≈ 0.186 µg/mL)
